# Laboratory results: patent publication US10363239B2, “Method for inhibiting growth of cancer cells” (Pain Therapeutics, Inc., priority 2013, dated 2019)
# Where two headings read alike, the source gives them in different places.
# How the values were obtained:
# [1] = target: FLNA pentapeptide of SEQ ID NO: 1 (Bn-VAKGL) (Homo sapiens, UniProt P21333); assay: FITC-NLX-based FLNA screening assay (inhibition of FITC-naloxone binding to Bn-VAKGL on streptavidin plates); details: 10 nM FITC-NLX
# [2] = system: mu opiate receptor (MOR); assay: MOR agonist activity using [35S]GTPγS binding assay in striatal membranes; format: biochemical; details: for MOR agonist activity ([35S]GTPγS binding), FLNA-Binding Compound as Agonist 1 μM + BFNA: 1 μM compound + 1 μM β-funaltrexamine
# Method in brief: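 Striatal membranes (200 μg) were preincubated 5 min at 30 °C in HEPES pH 7.5 with 100 mM NaCl, 1 mM MgCl2 and 0.5 nM [35S]GTPγS, then 5 min more with 0.1–10 μM compound. Gαo was immunoprecipitated and bound radioactivity counted by scintillation.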
# [3] = FLNA-binding compound 0.01 μM, read-out: Percent Binding Inhibition
# [4] = FLNA-binding compound 0.1 μM, read-out: Percent Binding Inhibition
# [5] = FLNA-binding compound 1 μM, read-out: Percent Binding Inhibition
# [6] = Series C-2, 0.1 μM compound, relative to DAMGO
# [7] = Series C-2, 0.1 μM compound, [35S]GTPγS binding to Gαo, striatal membranes
# [8] = Series C-2, 1 μM compound + 1 μM β-FNA
# [9] = Series C-2, 1 μM compound + β-FNA, relative to DAMGO + BFNA
# [10] = Series C-2, 1 μM compound, relative to DAMGO
# [11] = Series C-2, 1 μM compound, [35S]GTPγS binding to Gαo, striatal membranes
# [12] = 0.1 μM compound relative to DAMGO
# [13] = 1 μM compound + BFNA relative to DAMGO + BFNA
# [14] = 1 μM compound relative to DAMGO
# [15] = read-out: Percent Binding Inhibition, FLNA-binding compound 0.01 μM
# [16] = read-out: Percent Binding Inhibition, FLNA-binding compound 0.1 μM
# [17] = read-out: Percent Binding Inhibition, FLNA-binding compound 1 μM
# [18] = Series C-1, 0.1 μM compound, relative to DAMGO
# [19] = Series C-1, 0.1 μM compound, [35S]GTPγS binding to Gαo, striatal membranes
# [20] = Series C-1, 1 μM compound + 1 μM β-FNA
# [21] = Series C-1, 1 μM compound + β-FNA, relative to DAMGO + BFNA
# [22] = Series C-1, 1 μM compound, relative to DAMGO
# [23] = Series C-1, 1 μM compound, [35S]GTPγS binding to Gαo, striatal membranes
SMILES,"inhibition at 0.01 µM [1, 3] [%]","inhibition at 0.1 µM [1, 4] [%]","inhibition at 1 µM [1, 5] [%]","inhibition at 0.01 µM [1, 15] [%]","inhibition at 0.1 µM [1, 16] [%]","inhibition at 1 µM [1, 17] [%]","% DAMGO (0.1 μM) [2, 18] [%]","Concentration of FLNA-Binding Compound as Agonist 0.1 μM [2, 19] [%]","Concentration of FLNA-Binding Compound as Agonist 1 μM + BFNA [2, 20] [%]","% DAMGO + BFNA [2, 21] [%]","% DAMGO (1 μM) [2, 22] [%]","Concentration of FLNA-Binding Compound as Agonist 1 μM [2, 23] [%]",also measured
COc1ccc(S(=O)(=O)N2CCOC23CCN(C(=O)OC(C)(C)C)CC3)cc1 [Compound C0043],43.9,51.3,58,,,,,,,,,,"% DAMGO (0.1 μM) [2, 6]: 103.8%; MOR agonist activity, percent [35S]GTPγS binding at the stated compound concentration [2, 7]: 175.4%; MOR agonist activity, percent [35S]GTPγS binding at the stated compound concentration [2, 8]: 83.3%; % DAMGO + BFNA [2, 9]: 501.8%; % DAMGO (1 μM) [2, 10]: 110.9%; MOR agonist activity, percent [35S]GTPγS binding at the stated compound concentration [2, 11]: 242.6%"
CC1CCC(C(C)C)C(OCC(O)CN2CCOc3ccccc32)C1 (stereo not drawn) [Compound A0066],,,,,,,,,,,,,"Percent Binding Inhibition ([1]; FLNA-binding compound 0.01 μM): 36.7%; Percent Binding Inhibition ([1]; FLNA-binding compound 0.1 μM): 45.4%; Percent Binding Inhibition ([1]; FLNA-binding compound 1 μM): 53.7%; MOR agonist activity ([35S]GTPγS binding), FLNA-Binding Compound as Agonist 0.1 μM ([2]; 0.1 μM compound): 151.9%; % DAMGO (0.1 μM) [2, 12]: 88.3%; MOR agonist activity ([35S]GTPγS binding), FLNA-Binding Compound as Agonist 1 μM ([2]; 1 μM compound): 195.6%; MOR agonist activity ([35S]GTPγS binding), FLNA-Binding Compound as Agonist 1 μM + BFNA [2]: 59.2%; % DAMGO + BFNA [2, 13]: 171.6%; % DAMGO (1 μM) [2, 14]: 89.0%"
O=S(=O)(c1ccc(F)cc1)N1CCC2(CC1)OCCN2S(=O)(=O)c1ccc(F)cc1 [Compound C0029],,,,38.6,43.2,50.5,91.2,175.4,16.6,37.8,113.1,308.8,
COc1c2c(cc3c1C(CC(=O)CCc1ccccc1)N(C)CC3)OCO2 (stereo not drawn) [Compound B0050],29.2,34.5,39.8,,,,,,,,,,"% DAMGO (0.1 μM) ([2]; Series B, 0.1 μM compound, relative to DAMGO): 58.1%; MOR agonist activity, percent [35S]GTPγS binding at the stated compound concentration ([2]; Series B, 0.1 μM compound, [35S]GTPγS binding to Gαo, striatal membranes): 98.2%; MOR agonist activity, percent [35S]GTPγS binding at the stated compound concentration ([2]; Series B, 1 μM compound + 1 μM β-FNA): 48.8%; % DAMGO + BFNA ([2]; Series B, 1 μM compound + β-FNA, relative to DAMGO + BFNA): 294.0%; % DAMGO (1 μM) ([2]; Series B, 1 μM compound, relative to DAMGO): 96.4%; MOR agonist activity, percent [35S]GTPγS binding at the stated compound concentration ([2]; Series B, 1 μM compound, [35S]GTPγS binding to Gαo, striatal membranes): 211.0%"
CC(=O)Nc1ccc(S(=O)(=O)N2CCC3(CC2)OCCN3S(=O)(=O)c2ccc(NC(C)=O)cc2)cc1 [Compound C0013],,42.4,49.1,39.6,,,91.0,156.6,39.6,61.8,108.9,301.2,
COc1ccc(S(=O)(=O)N2CCCC3(C2)OCCN3S(=O)(=O)c2ccc(OC)cc2)cc1 (stereo not drawn) [Compound C0145M],45.1,53.7,58.3,,,,112.2,193.0,87.0,95.3,88.7,289.2,
CC1CCC(C(C)C)C(OCC(O)Cn2ccc3ccccc32)C1 (stereo not drawn) [Compound A0078],,,,50.1,55.8,57.6,,,,,,,"MOR agonist activity ([35S]GTPγS binding), FLNA-Binding Compound as Agonist 0.1 μM ([2]; 0.1 μM compound): 250.5%; % DAMGO (0.1 μM) [2, 12]: 124.9%; MOR agonist activity ([35S]GTPγS binding), FLNA-Binding Compound as Agonist 1 μM ([2]; 1 μM compound): 289.9%; MOR agonist activity ([35S]GTPγS binding), FLNA-Binding Compound as Agonist 1 μM + BFNA [2]: 147.8%; % DAMGO + BFNA [2, 13]: 274.2%; % DAMGO (1 μM) [2, 14]: 92.3%"
CS(=O)(=O)c1ccc(S(=O)(=O)N2CCOC23CCNCC3)cc1 [Compound C0116M],,,,53.9,60,62.9,,,,,,,"% DAMGO (0.1 μM) [2, 6]: 136.6%; MOR agonist activity, percent [35S]GTPγS binding at the stated compound concentration [2, 7]: 258.4%; MOR agonist activity, percent [35S]GTPγS binding at the stated compound concentration [2, 8]: 152.0%; % DAMGO + BFNA [2, 9]: 313.4%; % DAMGO (1 μM) [2, 10]: 122.0%; MOR agonist activity, percent [35S]GTPγS binding at the stated compound concentration [2, 11]: 302.8%"
